What all share (type): in vivo
In experiment [1] the test system is humans. The experiment is described as follows: Placebo controlled study in humans, change in total MADRS (ITT, LOCF). The note with it: for Change from Baseline in total MADRS, Mean (SD): ITT LOCF, depression rating scale.
Experiment [2] deals with Mice. The experiment in a line: Reserpine Reversal in Mice.
Experiment [3] concerns Mice. The experiment is described as follows: Reversal of Isolation-Induced Aggression in Mice.
In experiment [4] the test system is Mice. The experiment in a line: Forced-Swim Test (FST) in Mice.
Experiment [5] relates to Mice. The experiment is described as follows: Tetrabenazine Reversal in Mice.
Experiment [6] relates to Rats. The experiment in a line: Forced-Swim Test (FST) in Rats.
In experiment [7] the test system is Mice. The experiment in a line: Tail Suspension in Mice.

Structures are written as SMILES.

Consider `Fc1ccc([C@@H]2CCNC[C@H]2COc2ccc3c(c2)OCO3)cc1` (relative stereo) [Paroxetine, trans-(−)-3-[(1,3-benzodioxol-5-yloxy)methyl]-4-(4-fluorophenyl)piperidine, reference compound], for which the “Change from Baseline in total MADRS, Mean (SD)” value in experiment [1] (20 mg) was −14.1 (10.71).

For `Cl.NC(=O)OC[C@H](N)Cc1ccccc1` [Test Compound, (R)-(beta-amino-benzenepropyl) carbamate monohydrochloric acid], the antidepressant effects entry in experiment [2], in experiment [3], in experiment [4], in experiment [5], in experiment [6] and in experiment [7] was “demonstrated antidepressant effects” throughout. In addition, the “Change from Baseline in total MADRS, Mean (SD)” value was −12.1 (11.12) in experiment [1] (200 mg) and −12.4 (11.12) in experiment [1] (400 mg). Also, the “decrease in depression rating scores (MADRS) compared to placebo and paroxetine” value in experiment [1] (Table 1) was “greater decrease in depression rating scores (MADRS) as compared to placebo but not as great as the active control, paroxetine”. The “antidepressant effects in large placebo controlled study” value in experiment [1] (compared with Paroxetine) was “significant antidepressant effects”.
